Data published in patent US11963995B2, “Methods comprising desmopressin” (Ferring B.V., priority 2008, dated 2024).

System: adult patients with nocturia
Assay: Long term nocturnal voids, change from baseline up to week 52 (Parts II/III)
Assay type: in vivo, human
Details: for mean decrease in nocturnal voids per night at one year: Part III
Excerpt: To ensure that the study remained fully blinded during the full extent of both Parts I and II, re-randomization of subjects assigned to placebo after 4 weeks of treatment was predetermined at the time of initial randomization. […] The total treatment duration for each subject depended on when that subject was randomized in Part I and was estimated to be a minimum of 4 weeks and a maximum of 6 months. Upon completion of Part II of the study, subjects were given the option to participate in an open-label study with expected total treatment duration (double-blind extension plus open-label study) of at least 12 months (i.e., Part III). In Part III, subjects were assigned to the same treatment as in Part II, initially in a blinded manner. Subjects were unblinded and the study became open label only when all subjects in Parts I and II remaining in the study had entered Part III. During Part III, 10 μg was identified as a sub-therapeutic dose based on efficacy data from Part I. As a consequence, patients in the 10 μg treatment group were re-randomized (beginning Q4 2008) to one of the other treatment groups (i.e., 25 μg, 50 μg, or 100 μg). The total treatment duration was at least 12 months. A total of 508 patients entered the open-labeled extension (i.e., Part III). […] A summary of the changes from baseline is presented for all eligible subjects. […] However, based on the data below, the additional decreases in the number of voids can be characterized as clinically significant. As used here, “clinically significant” means a minimum worthwhile effect.

## NC(=O)CC[C@@H]1NC(=O)[C@H](Cc2ccccc2)NC(=O)[C@H](Cc2ccc(O)cc2)NC(=O)CCSSC[C@@H](C(=O)N2CCC[C@H]2C(=O)N[C@H](CCCN=C(N)N)C(=O)NCC(N)=O)NC(=O)[C@H](CC(N)=O)NC1=O [desmopressin]
25 μg, all eligible subjects
  mean decrease in nocturnal voids per night at one year: 1.4 voids per night
25 μg, all eligible female subjects, Day 28
  Change from baseline of nocturnal voids, Mean: −1.26
25 μg, all eligible female subjects, Week 8
  Change from baseline of nocturnal voids, Mean: −1.51
25 μg, all eligible female subjects, Week 12
  Change from baseline of nocturnal voids, Mean: −1.66
25 μg, all eligible female subjects, Week 20
  Change from baseline of nocturnal voids, Mean: −1.68
25 μg, all eligible female subjects, Week 28
  Change from baseline of nocturnal voids, Mean: −1.86
25 μg, all eligible female subjects, Week 52
  Change from baseline of nocturnal voids, Mean: −1.75
25 μg, all eligible male subjects, Day 28
  Change from baseline of nocturnal voids, Mean: −0.76
25 μg, all eligible male subjects, Week 8
  Change from baseline of nocturnal voids, Mean: −0.84
25 μg, all eligible male subjects, Week 12
  Change from baseline of nocturnal voids, Mean: −0.90
25 μg, all eligible male subjects, Week 20
  Change from baseline of nocturnal voids, Mean: −1.25
25 μg, all eligible male subjects, Week 28
  Change from baseline of nocturnal voids, Mean: −1.15
25 μg, all eligible male subjects, Week 52
  Change from baseline of nocturnal voids, Mean: −1.13
25 μg, all eligible subjects, Day 28
  Change from baseline of nocturnal voids, Mean: −0.98
25 μg, all eligible subjects, Week 8
  Change from baseline of nocturnal voids, Mean: −1.16
25 μg, all eligible subjects, Week 12
  Change from baseline of nocturnal voids, Mean: −1.29
25 μg, all eligible subjects, Week 20
  Change from baseline of nocturnal voids, Mean: −1.48
25 μg, all eligible subjects, Week 28
  Change from baseline of nocturnal voids, Mean: −1.44
25 μg, all eligible subjects, Week 52
  Change from baseline of nocturnal voids, Mean: −1.41
25 μg, all subjects with or without an assessment at week 52, Day 28
  Change from baseline of nocturnal voids, Mean: −0.96
25 μg, all subjects with or without an assessment at week 52, Week 12
  Change from baseline of nocturnal voids, Mean: −1.42
25 μg, all subjects with or without an assessment at week 52, Week 20
  Change from baseline of nocturnal voids, Mean: −1.61
25 μg, all subjects with or without an assessment at week 52, Week 28
  Change from baseline of nocturnal voids, Mean: −1.39
25 μg, all subjects with or without an assessment at week 52, Week 52
  Change from baseline of nocturnal voids, Mean: −1.41
25 μg, all subjects with or without an assessment at week 52, time printed as "Week" (between Day 28 and Week 12)
  Change from baseline of nocturnal voids, Mean: −1.31
50 μg, all eligible subjects
  mean decrease in nocturnal voids per night at one year: 1.77 voids per night
50 μg, all eligible female subjects, Day 28
  Change from baseline of nocturnal voids, Mean: −1.30
50 μg, all eligible female subjects, Week 8
  Change from baseline of nocturnal voids, Mean: −1.60
50 μg, all eligible female subjects, Week 12
  Change from baseline of nocturnal voids, Mean: −1.62
50 μg, all eligible female subjects, Week 20
  Change from baseline of nocturnal voids, Mean: −1.93
50 μg, all eligible female subjects, Week 28
  Change from baseline of nocturnal voids, Mean: −1.89
50 μg, all eligible female subjects, Week 52
  Change from baseline of nocturnal voids, Mean: −1.95
50 μg, all eligible male subjects, Day 28
  Change from baseline of nocturnal voids, Mean: −1.16
50 μg, all eligible male subjects, Week 8
  Change from baseline of nocturnal voids, Mean: −1.31
50 μg, all eligible male subjects, Week 12
  Change from baseline of nocturnal voids, Mean: −1.30
50 μg, all eligible male subjects, Week 20
  Change from baseline of nocturnal voids, Mean: −1.73
50 μg, all eligible male subjects, Week 28
  Change from baseline of nocturnal voids, Mean: −1.28
50 μg, all eligible male subjects, Week 52
  Change from baseline of nocturnal voids, Mean: −1.69
50 μg, all eligible subjects, Day 28
  Change from baseline of nocturnal voids, Mean: −1.22
50 μg, all eligible subjects, Week 8
  Change from baseline of nocturnal voids, Mean: −1.44
50 μg, all eligible subjects, Week 12
  Change from baseline of nocturnal voids, Mean: −1.44
50 μg, all eligible subjects, Week 20
  Change from baseline of nocturnal voids, Mean: −1.80
50 μg, all eligible subjects, Week 28
  Change from baseline of nocturnal voids, Mean: −1.55
50 μg, all eligible subjects, Week 52
  Change from baseline of nocturnal voids, Mean: −1.80
50 μg, all subjects with or without an assessment at week 52, Week 12
  Change from baseline of nocturnal voids, Mean: −1.51
50 μg, all subjects with or without an assessment at week 52, Week 20
  Change from baseline of nocturnal voids, Mean: −1.71
50 μg, all subjects with or without an assessment at week 52, Week 28
  Change from baseline of nocturnal voids, Mean: −1.55
50 μg, all subjects with or without an assessment at week 52, Week 52
  Change from baseline of nocturnal voids, Mean: −1.80
50 μg, all subjects with or without an assessment at week 52, time printed as "Day" (after Day 0)
  Change from baseline of nocturnal voids, Mean: −1.10
50 μg, all subjects with or without an assessment at week 52, time printed as "Week" (before Week 12)
  Change from baseline of nocturnal voids, Mean: −1.43
100 μg, all eligible subjects
  mean decrease in nocturnal voids per night at one year: 2.11 voids per night
100 μg, all eligible female subjects, Day 28
  Change from baseline of nocturnal voids, Mean: −1.50
100 μg, all eligible female subjects, Week 8
  Change from baseline of nocturnal voids, Mean: −1.69
100 μg, all eligible female subjects, Week 12
  Change from baseline of nocturnal voids, Mean: −1.79
100 μg, all eligible female subjects, Week 20
  Change from baseline of nocturnal voids, Mean: −1.98
100 μg, all eligible female subjects, Week 28
  Change from baseline of nocturnal voids, Mean: −1.75
100 μg, all eligible female subjects, Week 52
  Change from baseline of nocturnal voids, Mean: −2.11
100 μg, all eligible male subjects, Day 28
  Change from baseline of nocturnal voids, Mean: −1.31
100 μg, all eligible male subjects, Week 8
  Change from baseline of nocturnal voids, Mean: −1.52
100 μg, all eligible male subjects, Week 12
  Change from baseline of nocturnal voids, Mean: −1.89
100 μg, all eligible male subjects, Week 20
  Change from baseline of nocturnal voids, Mean: −1.92
100 μg, all eligible male subjects, Week 28
  Change from baseline of nocturnal voids, Mean: −1.92
100 μg, all eligible male subjects, Week 52
  Change from baseline of nocturnal voids, Mean: −2.12
100 μg, all eligible subjects, Day 28
  Change from baseline of nocturnal voids, Mean: −1.406
100 μg, all eligible subjects, Week 8
  Change from baseline of nocturnal voids, Mean: −1.61
100 μg, all eligible subjects, Week 12
  Change from baseline of nocturnal voids, Mean: −1.83
100 μg, all eligible subjects, Week 20
  Change from baseline of nocturnal voids, Mean: −1.95
100 μg, all eligible subjects, Week 28
  Change from baseline of nocturnal voids, Mean: −1.83
100 μg, all eligible subjects, Week 52
  Change from baseline of nocturnal voids, Mean: −2.11
100 μg, all subjects with or without an assessment at week 52, Day 28
  Change from baseline of nocturnal voids, Mean: −1.31
100 μg, all subjects with or without an assessment at week 52, Week 8
  Change from baseline of nocturnal voids, Mean: −1.47
100 μg, all subjects with or without an assessment at week 52, Week 12
  Change from baseline of nocturnal voids, Mean: −1.73
100 μg, all subjects with or without an assessment at week 52, Week 20
  Change from baseline of nocturnal voids, Mean: −1.86
100 μg, all subjects with or without an assessment at week 52, Week 52
  Change from baseline of nocturnal voids, Mean: −2.11
100 μg, all subjects with or without an assessment at week 52, time printed as "Week" (between Week 20 and Week 52)
  Change from baseline of nocturnal voids, Mean: −1.80
